In paper PMC4980415 (Psychopharmacology, 2016):
Structures can show the parent of a compound that is named as a salt.

What was measured:
[1] = healthy volunteers and patients with schizophrenia; no reference given; cited from earlier work
NK1 (h), neurokinin = biological target: T1, NK1 (h), neurokinin (Homo sapiens, UniProt P25103); assay: Off-target binding, General SEP II panel; conditions: 10 μM ITI-214, mean of n = 2
T1 construct: Caliper Life Sciences (contract screen)

PDE1 (bovine brain) = assay: PDE activity IMAP assay, bovine brain PDE1; format: biochemical; conditions: Fl-cGMP substrate, CaCl2/calmodulin
NK3 (h), neurokinin = biological target: T2, NK3 (h), neurokinin (Homo sapiens, UniProt P29371); assay: Off-target binding, General SEP II panel; conditions: 10 μM ITI-214, mean of n = 2
T2 construct: Caliper Life Sciences (contract screen)
T2 sequence (P29371 1-465): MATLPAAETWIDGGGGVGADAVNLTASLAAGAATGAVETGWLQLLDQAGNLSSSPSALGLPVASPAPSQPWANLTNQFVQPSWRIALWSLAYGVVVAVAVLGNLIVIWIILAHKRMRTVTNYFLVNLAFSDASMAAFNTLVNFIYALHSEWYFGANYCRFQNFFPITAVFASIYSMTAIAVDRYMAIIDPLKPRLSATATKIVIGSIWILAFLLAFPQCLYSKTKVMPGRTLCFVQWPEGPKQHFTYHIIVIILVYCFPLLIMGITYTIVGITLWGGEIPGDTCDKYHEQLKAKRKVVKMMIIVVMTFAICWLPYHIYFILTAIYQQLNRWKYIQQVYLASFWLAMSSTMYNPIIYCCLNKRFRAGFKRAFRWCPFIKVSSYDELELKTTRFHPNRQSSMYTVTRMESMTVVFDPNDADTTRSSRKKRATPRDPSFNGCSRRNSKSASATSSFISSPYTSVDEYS

[2] = tested on: memory acquisition and retrieval in male Wistar rats; assay: Novel object recognition (NOR): suboptimal doses 2 h before T1 and T2; format: in vivo, rat
Procedure: (§1) The drug was administered, per os (po), by gavage to rats in a volume of 2 ml/kg body weight. Oral dosing solutions were prepared fresh daily. […] The pH of the dosing solution was adjusted to ~pH 5.5 by dropwise addition of 0.1 N NaOH in saline and volume adjusted by addition of saline in preparation for intraperitoneal (ip) dosing. […] Control treatments were always the vehicle solutions of the corresponding drugs.
The object recognition test was performed as described elsewhere (Ennaceur and Delacour [1988]; Akkerman et al. 2014). The apparatus consisted of a circular arena, 83 cm in diameter. Half of the 40-cm-high wall was made of gray polyvinyl chloride, the other half of transparent polyvinyl chloride. The light intensity was equal in the different parts of the apparatus, as fluorescent red tubes provided a constant illumination of about 20 lx on the floor of the apparatus. Two objects were placed in a symmetrical position at about 10 cm from the gray wall. Four different sets of objects were used. The different objects were (1) a cone consisting of a gray polyvinyl chloride base (maximal diameter 18 cm) with a collar on top made of brass (total height 16 cm), (2) a standard 1 L transparent glass bottle (diameter 10 cm, height 22 cm) filled with water, (3) a large metal cube (10.0 × 5.0 × 7.5 cm) with two holes (diameter 1.9 cm), and (4) a large aluminum cube with a tapering top (13.0 × 8.0 × 8.0 cm). The objects used in this study were carefully selected to be “novelty neutral,” that is to say the rats have no innate preference for one over the other. […]
A testing session consisted of two trials. […] The times spent in exploring each object during T1 and T2 were recorded manually using a personal computer. […]
The basic measure recorded was the time spent by each rat exploring an object during T1 and T2. […] The following variables were calculated: e1 = a1 + a2, e2 = a + b, and d2 = (b − a) / e2. […] Differences in exploration times between treatment conditions were analyzed using a t test or one-way ANOVA. […]

[3] = tested on: early memory consolidation in male Wistar rats; assay: Novel object recognition (NOR): early consolidation, drug 4 min after T1; format: in vivo, rat; conditions: 4 min after T1 (head prints T2 +4 min)
Procedure: as §1
The object recognition test was performed as described elsewhere (Ennaceur and Delacour [1988]; Akkerman et al. 2014). The apparatus consisted of a circular arena, 83 cm in diameter. Half of the 40-cm-high wall was made of gray polyvinyl chloride, the other half of transparent polyvinyl chloride. The light intensity was equal in the different parts of the apparatus, as fluorescent red tubes provided a constant illumination of about 20 lx on the floor of the apparatus. Two objects were placed in a symmetrical position at about 10 cm from the gray wall. Four different sets of objects were used. The different objects were (1) a cone consisting of a gray polyvinyl chloride base (maximal diameter 18 cm) with a collar on top made of brass (total height 16 cm), (2) a standard 1 L transparent glass bottle (diameter 10 cm, height 22 cm) filled with water, (3) a large metal cube (10.0 × 5.0 × 7.5 cm) with two holes (diameter 1.9 cm), and (4) a large aluminum cube with a tapering top (13.0 × 8.0 × 8.0 cm). The objects used in this study were carefully selected to be “novelty neutral,” that is to say the rats have no innate preference for one over the other. In all cases, objects were of sufficient size and weight that rats could not move the objects.
A testing session consisted of two trials. The duration of each trial was 3 min. During the first trial (T1), the apparatus contained two identical objects (samples). Rats were placed in the apparatus facing the wall at the middle of the front (transparent) segment. After the first exploration period, the rat was put back in its home cage. Subsequently, after a 24-h delay interval, the rat was put in the apparatus for the second trial (T2). The times spent in exploring each object during T1 and T2 were recorded manually using a personal computer.
Exploration was defined as follows: directing the nose to the object at a distance of no more than 2 cm and/or touching the object with the nose. Sitting on the object was not considered as exploratory behavior. In order to avoid the presence of olfactory cues, the objects were always thoroughly cleaned with a 70 % ethanol solution before each trial. All combinations and locations of objects were used in a balanced manner to reduce potential biases due to preferences for particular locations or objects.
During the first 2 weeks after animal arrival, the animals were handled daily. They were then adapted to the procedure over the period of 2 days by allowing them to explore the apparatus (without any objects) for 3 min twice each day. […] After this, the rats were assigned to treatment conditions in a balanced manner, thereby insuring an equal distribution of object combinations among the treatment conditions. […] In all experiments, a 24-h inter-trial interval was used. In all cases, the experimenter was unaware of the treatment conditions that were being tested.
The basic measure recorded was the time spent by each rat exploring an object during T1 and T2. The time spent in exploring the two identical samples was represented by “a1” and “a2.” The time spent in T2 in exploring the sample and new object was represented by “a” and “b,” respectively. The following variables were calculated: e1 = a1 + a2, e2 = a + b, and d2 = (b − a) / e2. The e1 and e2 are measures of the total exploration time of both objects during T1 and T2, respectively. Differences in exploration times between treatment conditions were analyzed using a t test or one-way ANOVA. […]

[4] = biological target: T3, DA transporter (h), dopamine (Homo sapiens, UniProt Q01959); assay: Off-target binding, General SEP II panel; conditions: 10 μM ITI-214, mean of n = 2
T3 construct: Caliper Life Sciences (contract screen)
T3 sequence (Q01959 whole entry): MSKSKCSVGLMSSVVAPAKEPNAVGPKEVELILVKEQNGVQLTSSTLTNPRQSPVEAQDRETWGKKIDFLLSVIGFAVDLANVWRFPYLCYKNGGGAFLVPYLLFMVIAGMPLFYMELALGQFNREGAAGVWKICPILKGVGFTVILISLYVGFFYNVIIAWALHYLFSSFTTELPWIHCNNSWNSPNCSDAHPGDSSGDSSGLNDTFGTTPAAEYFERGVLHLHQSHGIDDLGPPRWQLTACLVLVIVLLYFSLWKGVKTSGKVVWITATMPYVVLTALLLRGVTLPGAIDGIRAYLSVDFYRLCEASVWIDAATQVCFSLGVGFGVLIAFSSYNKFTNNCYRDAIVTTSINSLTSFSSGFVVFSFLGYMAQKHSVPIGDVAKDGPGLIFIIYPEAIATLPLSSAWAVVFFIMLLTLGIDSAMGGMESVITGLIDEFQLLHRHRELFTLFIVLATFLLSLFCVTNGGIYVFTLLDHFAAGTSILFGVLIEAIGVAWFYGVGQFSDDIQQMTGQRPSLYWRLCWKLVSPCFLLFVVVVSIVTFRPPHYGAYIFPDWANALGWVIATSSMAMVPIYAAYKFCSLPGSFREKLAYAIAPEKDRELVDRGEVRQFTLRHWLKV

[5] = tested on: conditioned avoidance responding in male Wistar rats; assay: Conditioned avoidance response (CAR); format: in vivo, rat
Procedure: as §1
Avoidance behavior, escape behavior, escape failures, and inter-trial crosses were recorded, as described here: (1) avoidance (response to CS within 10 s); (2) escape (response to CS + UCS); and (3) escape failure (if the rat was unable to respond to the shock by moving into the opposite compartment within 50 s, the trial was terminated). The inter-trial interval (end of trial to start of new trial) varied randomly between 20 and 40 s. Rats were trained for five consecutive days and adapted to the shuttle box 5 min before each training session. Training sessions consisted of about 20 trials, randomly distributed over 15 min. Only rats that performed at least 90 % avoidance on the last day of training were included in the experiments. All subsequent test sessions were preceded by a pre-test to verify continued performance in the paradigm. Pre-tests and test sessions consisted of approximately ten trials, each randomly distributed over a 7.5-min period. […] Experimental days were always separated by at least two non-experimental days. Experimental tests were separated by at least 2 days to insure drug washout.
Results from the conditioned avoidance responding (CAR) protocol were analyzed using non-parametric procedures.

[6] = 0.3 mg/kg 2 h before T1 and 0.1 mg/kg 2 h before T2, po

T1 sequence (P25103 whole entry): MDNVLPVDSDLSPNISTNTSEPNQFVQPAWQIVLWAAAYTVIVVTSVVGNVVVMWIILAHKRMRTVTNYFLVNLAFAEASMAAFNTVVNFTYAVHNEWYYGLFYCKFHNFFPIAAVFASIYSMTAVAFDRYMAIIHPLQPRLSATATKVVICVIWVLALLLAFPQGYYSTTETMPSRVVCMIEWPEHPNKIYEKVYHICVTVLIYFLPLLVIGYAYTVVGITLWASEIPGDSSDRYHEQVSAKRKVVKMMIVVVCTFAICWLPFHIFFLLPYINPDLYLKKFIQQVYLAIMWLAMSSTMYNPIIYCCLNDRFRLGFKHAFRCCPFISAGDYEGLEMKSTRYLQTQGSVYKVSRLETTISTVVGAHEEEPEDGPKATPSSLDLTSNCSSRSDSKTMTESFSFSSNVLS

CN1C(=O)c2c(nn(Cc3ccc(-c4cccc(F)n4)cc3)c2Nc2ccccc2)N2C1=N[C@@H]1CCC[C@@H]12 [ITI-214, (6aR,9aS)-2-(4-(6-fluoropyridin-2-yl)benzyl)-5-methyl-3-(phenylamino)-5,6a,7,8,9,9a-hexahydrocyclopenta-[4,5]imidazo[1,2-a]pyrazolo[4,3-e]pyrimidin-4-(2H)-one phosphate salt]
safety and tolerability [1]: safe and well-tolerated
% Binding (NK1 (h), neurokinin): 30.93%
Ki (PDE1 (bovine brain)): 58 pM
% Binding (NK3 (h), neurokinin): 64.65%
Exploration time e1 (T1) [2, 6]: 30.43 (2.16) s
Exploration time e2 (T2) [2, 6]: 28.78 (1.26) s
effect on discrimination behavior (d2), combined sub-effective doses ([2]; 0.3 mg/kg 2 h before T1 plus 0.1 mg/kg 2 h before T2, different from chance and vehicle, p < 0.001): full increase in discrimination behavior
Exploration time e1 (T1) ([3]; 1 mg/kg po): 26.36 (1.93) s
Exploration time e2 (T2) ([3]; 1 mg/kg po): 29.66 (1.94) s
Exploration time e1 (T1) ([3]; 3 mg/kg po): 25.02 (2.20) s
Exploration time e2 (T2) ([3]; 3 mg/kg po): 30.55 (1.84) s
Exploration time e1 (T1) ([3]; 10 mg/kg po): 30.01 (1.62) s
Exploration time e2 (T2) ([3]; 10 mg/kg po): 31.35 (1.71) s
% Binding [4]: 58.70%
effect on percent avoidances ([5]; 1 mg/kg po alone): no significant effect
effect on number of escape failures ([5]; CAR paradigm): Neither risperidone nor ITI-214 had significant effects
effect on avoidance behavior of rats given risperidone ([5]; ITI-214 1 mg/kg po with risperidone 0.8 mg/kg i.p.): did not affect avoidance behavior
